What was measured:
ATPAC = target: T1, ATPAC (Arabidopsis thaliana, UniProt Q9LJX0, DUP906-907/P1064L); test: NPA binding to yeast expressing ATPAC
T1 construct: The 3.76 kb cDNA clone encodes a polypeptide 1,254 amino acids in length; expressed in transfected cells; host or cells: yeast (wild type and a strain lacking seven ABC transporters)
Text: Expression in Yeast and Xenopus Oocytes. ATPAC cDNA was expressed in wild type yeast as well as in yeasts lacking seven ABC transporters (as described by Decottignies et al., (1998) J. Biol. Chem. 273:12612-22)in order to create a heterologous system for studying function of the transporter. The yeasts were exposed to toxic compounds that are known substrates for human MDR1. […] Further, there was no evidence of a drug-pumping role for ATPAC.
ATPAC Binds the Auxin Transport Inhibitor naphthylphthalamic acid (NPA). Yeast expressing ATPAC was assayed for NPA binding. […] Bound NPA was not displaced by benzoic acid, a related hydrophobic organic acid. Proteins that bind NPA and influence auxin transport are considered important regulators of hormone action and therefore, of plant development.

[1] = test system: wild type Arabidopsis seedlings; test: Treatment of wild type seedlings, morphological phenotype; assay type: in vivo, Arabidopsis thaliana; details: 2,4-D or high concentrations of auxin
Text: Expression of the plPAC gene of the present invention is inducible by auxin as described below in Example 4. Treatment of wild type Arabidopsis seedlings with 2,4-D or high concentrations of auxin result in plants with the same phenotype as that of ATPAC mutant plants. […] Under this model, tissues that express this pump would accumulate auxin as a result of the mutation and the altered auxin balance could be responsible for the altered growth patters typifying the ATPAC phenotype. Further support of this model is the similarity of auxin to indolylic substrates pumped by human MDR1, and the finding that ATPAC expression is increased by auxin.

T1 sequence (Q9LJX0 other isoform, or with tags, fused parts or gaps DUP906-907/P1064L): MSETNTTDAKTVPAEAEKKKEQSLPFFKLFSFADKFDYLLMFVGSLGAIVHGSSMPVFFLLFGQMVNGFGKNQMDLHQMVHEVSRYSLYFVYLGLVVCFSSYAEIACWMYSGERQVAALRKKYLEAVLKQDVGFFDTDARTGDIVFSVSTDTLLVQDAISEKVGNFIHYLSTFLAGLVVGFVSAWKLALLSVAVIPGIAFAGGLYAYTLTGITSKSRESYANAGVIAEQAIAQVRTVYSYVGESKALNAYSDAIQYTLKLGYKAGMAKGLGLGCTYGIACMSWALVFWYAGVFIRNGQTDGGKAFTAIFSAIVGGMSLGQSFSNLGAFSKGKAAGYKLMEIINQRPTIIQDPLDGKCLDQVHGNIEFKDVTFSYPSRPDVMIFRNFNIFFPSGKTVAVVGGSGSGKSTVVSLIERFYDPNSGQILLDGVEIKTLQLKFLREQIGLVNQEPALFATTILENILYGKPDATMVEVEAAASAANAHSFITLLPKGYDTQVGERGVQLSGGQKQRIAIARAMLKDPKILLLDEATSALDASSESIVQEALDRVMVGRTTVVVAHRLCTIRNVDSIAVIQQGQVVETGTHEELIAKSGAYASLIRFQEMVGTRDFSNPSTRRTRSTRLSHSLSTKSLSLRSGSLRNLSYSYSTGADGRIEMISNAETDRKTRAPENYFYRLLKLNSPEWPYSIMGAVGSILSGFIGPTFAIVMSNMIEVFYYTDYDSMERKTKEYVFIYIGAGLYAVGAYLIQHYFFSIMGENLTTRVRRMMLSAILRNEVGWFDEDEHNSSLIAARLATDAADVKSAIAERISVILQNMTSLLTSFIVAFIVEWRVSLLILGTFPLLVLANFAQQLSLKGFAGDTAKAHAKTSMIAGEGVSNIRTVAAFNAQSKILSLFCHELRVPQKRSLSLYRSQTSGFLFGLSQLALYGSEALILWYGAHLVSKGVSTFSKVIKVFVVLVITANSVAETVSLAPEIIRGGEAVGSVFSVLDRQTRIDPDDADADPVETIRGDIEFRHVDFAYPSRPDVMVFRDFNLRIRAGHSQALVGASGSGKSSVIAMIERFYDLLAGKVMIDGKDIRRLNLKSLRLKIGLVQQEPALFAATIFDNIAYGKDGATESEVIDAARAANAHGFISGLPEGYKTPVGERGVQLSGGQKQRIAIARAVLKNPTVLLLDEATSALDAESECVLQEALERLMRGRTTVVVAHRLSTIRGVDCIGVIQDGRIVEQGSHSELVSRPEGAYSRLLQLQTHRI

O=C(O)c1ccccc1C(=O)Nc1cccc2ccccc12 [NPA, naphthylphthalamic acid]
NPA binding to ATPAC-expressing yeast (ATPAC; ATPAC-expressing yeast): bound tightly and specifically
NPA binding to control yeast (ATPAC; control yeast): not to control yeast

O=C(O)c1ccccc1 [benzoic acid]
Displacement of bound NPA (ATPAC; ATPAC-expressing yeast, bound NPA): not displaced

O=C(O)Cc1c[nH]c2ccccc12 [auxin]
Phenotype of treated wild type seedlings [1]: strongly curved organs

O=C(O)COc1ccc(Cl)cc1Cl [2,4-D]
Phenotype of treated wild type seedlings [1]: strongly curved organs
